One compound from US20230172920A1, “DOSING REGIMEN FOR TREATING A DISEASE MODULATED BY CSF-1R” (Novartis AG, priority 2020, published 2023) can be followed below.

Like-named read-outs stand apart in the source and are kept apart here.

The subject of one data set is microglia. In words: CNS microglia clearance in mice, Iba1/Aif-1 staining of cortex (RD-2019-00100). The note with it: for microglial depletion / microglial reduction: 5 consecutive days; for microglia brain repopulation: 169 mg/kg qd 5 days; for microglia depleted in the cortex: 169 mg/kg qd. It counts as in vivo. As to the method: Several studies were performed to understand PK/PD relationships for CNS microglia clearance in mice. In the first study (RD-2019-00100) mice were treated once daily (qd) for between 1 and 5 consecutive days with a dose of 169 mg/kg BLZ945. Additionally, two dose groups received 169 mg/kg BLZ945 for 5 consecutive days followed by either 3 or 7 days of drug withdrawal (washout). […] Pharmacokinetic analysis was performed on blood and brain samples taken from each group at 3 hours after the final dose on the indicated necropsy day. […] Exposures dropped by more than 1000-fold following the washout period (FIG. 8 B).
FIG. 8: (A) Microglial depletion in the cortex, as assessed by Iba1/Aif-1 immunohistological staining at necropsy. Sections were analyzed for total number of microglia cell bodies per sample area. Values are group means±SD (n=3). (B) Exposure of BLZ945 in blood and brain 3 hours after the last dose on the day of necropsy. Values are group means (n=3).
In a follow-up study (RD-2019-00100), mice were treated with BLZ945 for 5 consecutive days with a range of doses from 7 to 169 mg/kg. The two lowest doses of 7 mg/kg and 20 mg/kg were ineffective for microglial depletion. […] Here the ratio of brain to blood exposures was approximately 30% at the four lowest doses and approximately 55% at the highest dose (FIG. 9 B).
FIG. 9: Dose-dependent reduction of microglia. (A) Mice were treated for 5 consecutive days with BLZ945 at the indicated doses. Samples were analyzed histologically by Iba1/Aif-1 staining and quantified for total microglia cell bodies per sample area. Data are group means±SD (n=3). (B) Exposure of BLZ945 in blood and brain following 5 consecutive days of dosing at multiple doses. Values are group means±SD (n=3).

Data set [1] in a line: Blood and spinal cord exposure, 8-week SOD1G93A efficacy study. Type of data set: in vivo, SOD1G93A mouse. The note with it: for Kp at 3 h / concentration at 3 h: mouse; for Kp at 3 h: spinal cord relative to blood; for concentration at 3 h: blood, read-out: Blood conc. As to the method: BLZ945 was dosed over an 8-week period in a mouse model of ALS (in house data). BLZ945 was tested for efficacy in preventing or delaying disease progression in the SOD1G93A ALS mouse (RD-2019-00092). […] Normal body weight gain is also impaired in this model. These physiological impairments are considered as mechanistic readouts given that they best recapitulate the clinical disease phenotype (Turner et al 2013). Animals were dosed from 8 to 16 weeks of age with daily (q.d) doses of BLZ945 at either 65 mg/kg, 170 mg/kg, or 170 mg/kg delivered intermittently with a 7 day ON/7 day OFF regimen.
Microglia were depleted by greater than 90% with the high dose (170 mg/kg) of BLZ945 and by about 50% with the low dose (65 mg/kg). […] Blood and CNS exposure to BLZ945 were measured at 3 hours post-dose on the day of necropsy (Table 8). BLZ945 spinal cord exposure ratios (relative to blood) were consistent across dose groups at approximately 0.4 (Table 9).

Data set [2] can be described thus: AST/ALT elevation across single agent dose groups (clinical data, CTCAE). Type of data set: in vivo, human. As for the experimental part:
A comparison of AST and ALT elevation across single agent dose groups for the compound of Formula (I) was performed for the once per week (Q1WV) dosing regimen and the 4 days on/10 days off dosing regimen over a range of dosages. FIGS. 6 and 7 show the AST and ALT elevations, respectively. The Common Terminology Criteria for Adverse Events (CTCAE) was used to evaluate AST and ALT levels.

Regarding `CNC(=O)c1cc(Oc2ccc3nc(N[C@@H]4CCCC[C@H]4O)sc3c2)ccn1` [BLZ945, 4-((2-(((1R,2R)-2-hydroxycyclohexyl)amino)benzo[d]thiazol-6-yl)oxy)-N-methylpicolinamide], the microglial depletion result with microglia (7 mg/kg) and in the data set on microglia (20 mg/kg) was “ineffective” in each case. The microglial reduction in the data set on microglia (60 mg/kg) worked out at 25%; in the data set on microglia (100 mg/kg) it was 60%; in the data set with microglia (169 mg/kg), 100%. Besides, the microglia brain repopulation is reported as ~80 % of vehicle in the data set with microglia (then 3 days washout) and “complete repopulation” in the data set with microglia (then 7 days washout). Also, the “microglia depleted in the cortex” value is “approximately 50%” in the data set with microglia (day 2) and “approximately 90%” in the data set with microglia (day 5). The “Spinal Cord Conc.” value in data set [1] (65 mg/kg q.d., 3 h post-dose) turned out to be 11799.8 pmol/g; in data set [1] (170 mg/kg CONT, 3 h post-dose) it was 28358.8 pmol/g; in data set [1] (170 mg/kg INT (7 day ON/7 day OFF), 3 h post-dose), 18573.5 pmol/g. Besides, the Kp at 3 h in data set [1] (SOD1G93A (transgenic ALS model), 170 mg/kg CONT, 3 h post-dose, read-out: Spinal Cord/Blood ratio) is 0.42; in data set [1] (SOD1G93A, 65 mg/kg q.d., 3 h post-dose, read-out: Spinal Cord/Blood ratio), 0.42; in data set [1] (SOD1G93A, 170 mg/kg INT (7 day ON/7 day OFF), 3 h post-dose, read-out: Spinal Cord/Blood ratio) it was 0.36; in data set [1] (SOD1G93A, across dose groups, 3 hours post-dose, read-out: spinal cord exposure ratios (relative to blood)) it was approximately 0.4. For the same compound, the concentration at 3 h turned out to be 29.3 µM in data set [1] (SOD1G93A, 65 mg/kg, 65 mg/kg q.d., 3 h post-dose); 66.3 µM in data set [1] (SOD1G93A, 170 mg/kg, 170 mg/kg CONT, 3 h post-dose); 50.4 µM in data set [1] (SOD1G93A, 170 mg/kg, 170 mg/kg INT (7 day ON/7 day OFF), 3 h post-dose). In addition, the “AST and ALT elevations” value in data set [2] (4 days on/10 days off compared with Q1W dosing regimen, single agent) is recorded as “better controlled”. Moreover, the ALT/AST levels result in data set [2] (4 days on/10 days off schedule) is on record as “recover to baseline before next dose”. Further, in data set [2] (Q1W dose, even at lowest dose of 300 mg), the “AST and ALT levels” value was “spikes above the G2 level”.
